Values of other authors as cited in PMC3815949 (Microbial biotechnology, 2009).

Test system: DmpA
Format: biochemical, Brucella anthropi

| Structure (SMILES) | Km [mM] |
| --- | --- |
| NCCC(N)=O [H-β-Ala-NH2] | ~1.5 |
| N[C@@H](Cc1cnc[nH]1)C(=O)O [L-histidine] | ~51 |
